Assay results reported in PubChem BioAssay (NCI).
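Following 48 hours of exposure in 96-well plates, responses at five concentrations were used to interpolate endpoints linearly. GI50 is the concentration that inhibits growth by half. At the TGI there is no net growth.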

What was measured:
Assay in all cases: inhibition of tumour cell growth, NCI panel, 48 h
[1] = tested on: CCRF-CEM leukemia
[2] = tested on: IGROV1 ovarian
[3] = tested on: MOLT-4 leukemia
[4] = tested on: RPMI-8226 leukemia
[5] = tested on: NCI-H23 lung
[6] = tested on: SK-MEL-5 melanoma
[7] = tested on: HCC-2998 colon
[8] = tested on: OVCAR-5 ovarian
[9] = tested on: HL-60(TB) leukemia
[10] = tested on: EKVX NSCLC

Row | Compound | TGI [1] | TGI [2] | TGI [3] | TGI [4] | TGI [5] | TGI [6] | TGI [7] | TGI [8] | TGI [9] | TGI [10] | GI50 [1] | GI50 [2] | GI50 [3] | GI50 [4] | GI50 [5] | GI50 [6] | GI50 [7] | GI50 [8] | GI50 [9] | GI50 [10]
1 | FC(F)(F)c1ccccc1C1SCC2=Nc3ccccc3CN21 (stereo not given) | 95 µM | 29.7 µM | > 100 µM | > 100 µM | 26.6 µM | 27.9 µM | 27.6 µM | 26.6 µM | 66.2 µM | 24.9 µM |  |  |  |  |  |  |  |  |  | 
2 | FC(F)(F)c1ccc(C2ON=C(c3ccccc3)N2C23CC4CC(CC(C4)C2)C3)cc1 (stereo not given) | > 10 µM | > 10 µM | > 10 µM | > 10 µM | > 10 µM | > 10 µM | > 10 µM | > 10 µM | > 10 µM | > 10 µM |  |  |  |  |  |  |  |  |  | 
3 | CC(C)=CCCC(C)(OC1OC(CO)C(O)C(O)C1O)C1CCC2(C)C1C(O)CC1C3(C)CCC(O)C(C)(C)C3C(OC3OC(CO)C(O)C(O)C3OC3OC(C)C(O)C(O)C3O)CC12C (stereo not given) (tested in a mixture with another compound) | > 75 µM | > 75 µM | > 75 µM | > 75 µM | > 75 µM | > 75 µM | > 75 µM | > 75 µM | > 75 µM | > 75 µM |  |  |  |  |  |  |  |  |  | 
4 | C[C@@H](CC(O)C(O)C(C)(C)O)C1CCC23CC12CCC1[C@@]2(C)CCC(O)C(C)(C)C2CC(OC2OC(CO)C(O)C(O)C2O)[C@]13C (stereo not given in full) | > 10 µM | > 10 µM | > 10 µM | > 10 µM | > 10 µM | > 10 µM | > 10 µM | > 10 µM | > 10 µM | > 10 µM |  |  |  |  |  |  |  |  |  | 
5 | O=C1Oc2ccccc2C1C/C(=N\Nc1ccccc1)c1ccccc1O (stereo not given) | > 100 µM | > 100 µM | 78.7 µM | 72.3 µM | 74 µM | > 100 µM | > 100 µM | > 100 µM | > 100 µM | > 100 µM |  |  |  |  |  |  |  |  |  | 
6 | CNC(=O)c1n[nH]n(C2CCCCC2)c1=S | > 100 µM | > 100 µM | > 100 µM | > 100 µM | > 100 µM | > 100 µM | > 100 µM | > 100 µM | > 100 µM | > 100 µM |  |  |  |  |  |  |  |  |  | 
7 | O=C(O)c1nc2ccccc2nc1Nc1ccc(Cl)c(Cl)c1 | > 100 µM | > 100 µM | > 100 µM | > 100 µM | 50.1 µM | 47 µM | 73.5 µM | > 100 µM | > 100 µM | > 100 µM |  |  |  |  |  |  |  |  |  | 
8 | CN(C)c1ccc(/C=C/C(=O)c2ccc(O)cc2)cc1 | 17.4 µM | > 100 µM | 21 µM | 22 µM | > 100 µM | 23.3 µM | 38.1 µM | > 100 µM | 5.57 µM | > 100 µM |  |  |  |  |  |  |  |  |  | 
9 | COc1ccc(C2c3cc4c(cc3OC(NNc3ccccc3)C2C)OCO4)cc1 (stereo not given) | 40.5 µM | > 100 µM | > 100 µM | > 100 µM | > 100 µM | 99.4 µM | 4.79 µM | > 100 µM | 20.8 µM | 24.3 µM |  |  |  |  |  |  |  |  |  | 
10 | CCOC(=O)C(NC(=O)OCc1ccccc1)C(=O)O (stereo not given) | > 100 µM | > 100 µM | > 100 µM | > 100 µM | > 100 µM | > 100 µM | > 100 µM | > 100 µM | > 100 µM | > 100 µM |  |  |  |  |  |  |  |  |  | 
11 | COc1cc2ccc3c4ccccc4cnc3c2cc1OC | > 100 µM | > 100 µM | > 100 µM | > 100 µM | > 100 µM | > 100 µM | > 100 µM | > 100 µM | > 100 µM | > 100 µM |  |  |  |  |  |  |  |  |  | 
12 | C=C1CC(C)(COc2ccc3c(C)c(Cl)c(=O)oc3c2)OC1=O (stereo not given) | 2.54 µM | 3.94 µM | 3.24 µM | 1.83 µM | 4.2 µM | 4.2 µM | 4.27 µM | 13.4 µM | 1.21 µM | 20.8 µM |  |  |  |  |  |  |  |  |  | 
13 | CC(=O)Nc1[nH]n(C)c(=O)c1-c1nnc(C)s1 | > 100 µM | > 100 µM | > 100 µM | > 100 µM | > 100 µM | > 100 µM | > 100 µM | > 100 µM | > 100 µM | > 100 µM |  |  |  |  |  |  |  |  |  | 
14 | O=C1CCN2c3ccccc3[C@H]3Cc4cccc(c4[C@@H]2C3)CCO1 | > 100 µM | 84.9 µM | 54.5 µM | > 100 µM | > 100 µM | 54.3 µM | > 100 µM | > 100 µM | 48.8 µM | > 100 µM |  |  |  |  |  |  |  |  |  | 
15 | CC1=NN(c2nc(N)nc(NS(=O)(=O)c3cc(C)c(Cl)cc3S)n2)C(C)(C)C1 | > 10 µM | > 10 µM | > 10 µM | > 10 µM | > 10 µM | > 10 µM | > 10 µM | > 10 µM | > 10 µM | > 10 µM |  |  |  |  |  |  |  |  |  | 
16 | Cc1ccc(/C=C2\Sc3scc(-c4ccccc4)[n+]3C2=O)cc1 | 32.9 µM | > 56.8 µM | > 72.6 µM | 35.4 µM | 46.4 µM | > 58.2 µM | 75 µM | > 100 µM | 5.31 µM | > 58.5 µM |  |  |  |  |  |  |  |  |  | 

Row | Compound | TGI [1] | TGI [2] | TGI [3] | TGI [4] | TGI [5] | TGI [6] | TGI [7] | TGI [8] | TGI [9] | TGI [10] | GI50 [1] | GI50 [2] | GI50 [3] | GI50 [4] | GI50 [5] | GI50 [6] | GI50 [7] | GI50 [8] | GI50 [9] | GI50 [10]
17 | COc1ccc(Nc2nc3ccccc3n3cccc23)cc1OC | 15.2 µM | 52.3 µM | 43.3 µM | 54.3 µM | 27.9 µM | 24.2 µM | 27.6 µM | > 100 µM | 9.51 µM | 68.5 µM |  |  |  |  |  |  |  |  |  | 
18 | CC1(C)C2CCC3CC(CCC#N)CCC3C21C#N (stereo not given) | > 100 µM | > 100 µM | > 100 µM | > 100 µM | > 100 µM | > 100 µM | > 100 µM | > 100 µM | > 100 µM | > 100 µM |  |  |  |  |  |  |  |  |  | 
19 | CC1=NN=C(C)C1N=Nc1ccc2nc(C)[nH]c2c1 | > 100 µM | 29.7 µM | > 85.9 µM | > 100 µM | > 100 µM | > 63.8 µM | > 100 µM | > 100 µM | > 100 µM | > 71.3 µM |  |  |  |  |  |  |  |  |  | 
20 | CC(C)[C@@H]1CC[C@@H](C)C[C@H]1OC(=O)c1c2n(c3ccccc13)C[C@H]1OC(C)(C)O[C@@H]21 | > 100 µM | > 100 µM | > 100 µM | > 100 µM | 48.9 µM | > 100 µM | > 100 µM | > 100 µM | > 100 µM | 73.8 µM |  |  |  |  |  |  |  |  |  | 
21 | CCCCCCCC/C=C1\CCC(CN(C)C)C1=O (stereo not given) | 6.96 µM | 20.8 µM | 10.1 µM | 0.763 µM | 24.4 µM | 21.7 µM | 22 µM | 35.5 µM | 22.2 µM | 21.6 µM |  |  |  |  |  |  |  |  |  | 
22 | CCN(CC)CCCNc1c2c(Cl)cc(Cl)cc2nc2nc(=O)[nH]c(C)c12 | > 100 µM | > 100 µM | 54.3 µM | > 10 µM | > 100 µM | > 100 µM | 51 µM | 50.6 µM | > 100 µM | > 100 µM |  |  |  |  |  |  |  |  |  | 
23 | NS(=O)(=O)c1ccc(NC(=O)N/N=C/c2ccccc2O)cc1 | > 100 µM | > 100 µM | > 100 µM | > 100 µM | > 100 µM | > 100 µM | > 100 µM | > 100 µM | > 100 µM | > 100 µM |  |  |  |  |  |  |  |  |  | 
24 | COc1nc(N=P(c2ccccc2)(c2ccccc2)c2ccccc2)cc(=O)n1C | > 100 µM | > 100 µM | > 100 µM | > 100 µM | > 100 µM | > 100 µM | > 100 µM | > 100 µM | > 100 µM | > 100 µM |  |  |  |  |  |  |  |  |  | 
25 | COC1(CC[C@@H](C)COC2OC(CO)C(O)C(O)C2O)O[C@H]2C[C@H]3[C@@H]4CC=C5C[C@@H](OC6OC(CO)C(OC7OC(C)C(O)C(O)C7O)C(O)C6OC6OC(C)C(O)C(O)C6O)CC[C@]5(C)[C@H]4CC[C@]3(C)[C@H]2[C@@H]1C (stereo not given in full) | 20.2 µM | 7.16 µM | > 26.1 µM | 13.7 µM | 9.14 µM | 12.2 µM | 8.5 µM | 10.5 µM | 13.4 µM | 33.3 µM | 7.6 µM | 2.5 µM | 5.36 µM | 3.83 µM | 2.95 µM | 3.51 µM | 2.97 µM | 1.91 µM | 3.47 µM | 10 µM
26 | C[C@]12C=CC(=O)C=C1CC[C@@H]1[C@@H]2CC[C@@]2(C)[C@H]1CC[C@]2(O)C(N)=O | > 100 µM | > 100 µM | > 100 µM | > 100 µM | > 100 µM | > 100 µM | > 100 µM | > 100 µM | > 100 µM | > 100 µM |  |  |  |  |  |  |  |  |  | 
27 | O=C1N=C2SC=C(NC(=S)Nc3ccccc3)N2NC12c1ccccc1-c1ccccc12 | > 10 µM | > 10 µM | > 10 µM | > 10 µM | > 10 µM | > 10 µM | > 10 µM | > 10 µM | > 10 µM | > 10 µM |  |  |  |  |  |  |  |  |  | 
28 | Nc1nc(NNc2cccc(F)c2)cc(=O)[nH]1 | > 100 µM | > 100 µM | > 100 µM | > 100 µM | > 100 µM | > 100 µM | > 100 µM | > 100 µM | 59.3 µM | > 100 µM |  |  |  |  |  |  |  |  |  | 
29 | CN(C)CCN(C)P12(Oc3ccccc3O1)Oc1c(Cl)c(Cl)c(Cl)c(Cl)c1O2 | 92.2 µM | > 100 µM | > 100 µM | > 100 µM | > 100 µM | > 100 µM | > 100 µM | > 100 µM | 40.9 µM | > 100 µM |  |  |  |  |  |  |  |  |  | 
30 | COC(=O)C1(NC(=O)C(Cc2ccccc2)N(C(=O)OC(C)(C)C)C(=O)OC(C)(C)C)CCCC1 (stereo not given) | > 100 µM | > 100 µM | > 100 µM | 47.1 µM | > 100 µM | > 100 µM | > 100 µM | > 100 µM | 62.1 µM | > 100 µM |  |  |  |  |  |  |  |  |  | 
31 | COc1ccc(/C=c2\c(=O)[nH]c3nc4ccccc4c(=O)n23)cc1 | > 100 µM | > 100 µM | > 100 µM | > 100 µM | > 100 µM | > 100 µM | > 100 µM | > 100 µM | > 100 µM | > 100 µM |  |  |  |  |  |  |  |  |  | 
